From patent US11084800B2 (Achillion Pharmaceuticals, Inc., priority 2017, dated 2021) come the findings set out here.

For orientation: IC50 means the concentration that inhibits the measured activity by half.

Human Factor D, sequence (P00746 26-253): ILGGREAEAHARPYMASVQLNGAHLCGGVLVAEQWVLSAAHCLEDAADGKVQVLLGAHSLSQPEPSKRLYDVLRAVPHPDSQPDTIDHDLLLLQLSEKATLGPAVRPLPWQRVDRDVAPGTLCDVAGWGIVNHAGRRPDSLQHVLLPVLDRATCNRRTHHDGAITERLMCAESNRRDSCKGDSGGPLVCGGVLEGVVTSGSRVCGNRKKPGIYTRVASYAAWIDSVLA

The experiment addresses Human Factor D (Homo sapiens (Human), UniProt P00746). Nature of the experiment: Human Factor D Assay. It is filed as biochemical. The conditions noted are these: Table 6; Factor D 80 nM, substrate Z-L-Lys-SBz; read-out: IC50. An outline of the steps:
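Thioester substrate Z-L-Lys-SBz (100 μM) with Ellman's reagent DTNB (100 μM) reports activity of 80 nM human serum-derived enzyme, kinetically at 405 nm over 30 min. Compound preincubated 5 min, room temperature, pH 7.5 Tris/1 M NaCl; IC50 by nonlinear fit of rates.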
On to `CC(=O)c1nn(CC(=O)N2[C@H](C(=O)Nc3nc(Br)ccc3C)C[C@@]3(C)C[C@@H]23)c2c(C#N)cc(-c3cnc(C)nc3)cc12` [Compound 124, (1R,3S,5R)-2-(2-(3-Acetyl-7-cyano-5-(2-methylpyrimidin-5-yl)-1H-indazol-1-yl)acetyl)-N-(6-bromo-3-methylpyridin-2-yl)-5-methyl-2-azabicyclo[3.1.0]hexane-3-carboxamide], for which the IC50 is < 1 µM.
Consider `CC(=O)c1nn(CC(=O)N2[C@H](C(=O)Nc3nc(Br)ccc3C)C[C@@]3(C)C[C@@H]23)c2ccc(-c3cnc(N(C)C)nc3)cc12` [Compound 125, (1R,3S,5R)-2-(2-(3-Acetyl-5-(2-(dimethylamino)pyrimidin-5-yl)-1H-indazol-1-yl)acetyl)-N-(6-bromo-3-methylpyridin-2-yl)-5-methyl-2-azabicyclo[3.1.0]hexane-3-carboxamide], for which the IC50 was < 1 µM.
With `CC(=O)c1nn(CC(=O)N2[C@H](C(=O)O)C[C@@]3(C)C[C@@H]23)c2c(C)cc(-c3cnc(C)nc3)cc12` [Compound 126, (1R,3S,5R)-2-(2-(3-acetyl-7-methyl-5-(2-methylpyrimidin-5-yl)-1H-indazol-1-yl)acetyl)-5-methyl-2-azabicyclo[3.1.0]hexane-3-carboxylic acid], the IC50 is > 10 µM.
As to `CC(=O)c1nn(CC(=O)N2[C@H](C(=O)Nc3nc(Br)ccc3C)C[C@@]3(CN4CC5(COC5)C4)C[C@@H]23)c2c(C)cc(-c3cnc(C)nc3)cc12` [Compound 127, (1R,3S,5R)-5-(2-Oxa-6-azaspiro[3.3]heptan-6-ylmethyl)-2-(2-(3-acetyl-7-methyl-5-(2-methylpyrimidin-5-yl)-1H-indazol-1-yl)acetyl)-N-(6-bromo-3-methylpyridin-2-yl)-2-azabicyclo[3.1.0]hexane-3-carboxamide], the IC50 is < 1 µM.
Regarding `CC(=O)c1nn(CC(=O)N2[C@H](C(=O)Nc3nc(Br)ccc3C)C[C@@]3(CN4C[C@H]5CCC[C@H]5C4)C[C@@H]23)c2c(C)cc(-c3cnc(C)nc3)cc12` [Compound 128, (1R,3S,5R)-2-(2-(3-Acetyl-7-methyl-5-(2-methylpyrimidin-5-yl)-1H-indazol-1-yl)acetyl)-N-(6-bromo-3-methylpyridin-2-yl)-5-(((3aR,6aS)-hexahydrocyclopenta[c]pyrrol-2(1H)-yl)methyl)-2-azabicyclo[3.1.0]hexane-3-carboxamide], the IC50 is < 1 µM.
As for `CC(=O)c1nn(CC(=O)N2[C@H](C(=O)Nc3nc(Br)ccc3C)C[C@@]3(CN4CC5(CCCC5)C4)C[C@@H]23)c2c(C)cc(-c3cnc(C)nc3)cc12` [Compound 129, (1R,3S,5R)-5-(2-Azaspiro[3.4]octan-2-ylmethyl)-2-(2-(3-acetyl-7-methyl-5-(2-methylpyrimidin-5-yl)-1H-indazol-1-yl)acetyl)-N-(6-bromo-3-methylpyridin-2-yl)-2-azabicyclo[3.1.0]hexane-3-carboxamide], the IC50 is < 1 µM.
For `CC(=O)c1nn(CC(=O)N2[C@H](C(=O)Nc3nc(Br)ccc3C)C[C@@]3(C)C[C@@H]23)c2ccc(-c3cnc(C)nc3)c(F)c12` [Compound 130, (1R,3S,5R)-2-(2-(3-Acetyl-4-fluoro-5-(2-methylpyrimidin-5-yl)-1H-indazol-1-yl)acetyl)-N-(6-bromo-3-methylpyridin-2-yl)-5-methyl-2-azabicyclo[3.1.0]hexane-3-carboxamide] the value was < 1 µM; for `CC(=O)c1nn(CC(=O)N2[C@H](C(=O)Nc3nc(Br)ccc3C)C[C@@]3(C)C[C@@H]23)c2c(C3CC3)cc(-c3cnc(C)nc3)cc12` [Compound 131, (1R,3S,5R)-2-(2-(3-Acetyl-7-cyclopropyl-5-(2-methylpyrimidin-5-yl)-1H-indazol-1-yl)acetyl)-N-(6-bromo-3-methylpyridin-2-yl)-5-methyl-2-azabicyclo[3.1.0]hexane-3-carboxamide], < 1 µM.
Turning to `CCNC[C@@]12C[C@@H](C(=O)Nc3nc(Br)ccc3C)N(C(=O)Cn3nc(C(C)=O)c4cc(-c5cnc(C)nc5)cc(C)c43)[C@@H]1C2` [Compound 132, (1R,3S,5R)-2-(2-(3-Acetyl-7-methyl-5-(2-methylpyrimidin-5-yl)-1H-indazol-1-yl)acetyl)-N-(6-bromo-3-methylpyridin-2-yl)-5-((ethylamino)methyl)-2-azabicyclo[3.1.0]hexane-3-carboxamide], the IC50 was < 1 µM.
Consider `CC(=O)c1nn(CC(=O)N2[C@H](C(=O)Nc3nc(Br)ccc3C)C[C@@]3(C)C[C@@H]23)c2c(C(F)(F)F)cc(-c3cnc(C)nc3)cc12` [Compound 133, (1R,3S,5R)-2-(2-(3-Acetyl-5-(2-methylpyrimidin-5-yl)-7-(trifluoromethyl)-1H-indazol-1-yl)acetyl)-N-(6-bromo-3-methylpyridin-2-yl)-5-methyl-2-azabicyclo[3.1.0]hexane-3-carboxamide], for which the IC50 was < 1 µM.
With `C=CCOCc1ccc(Br)nc1NC(=O)[C@@H]1C[C@@]2(C=C)C[C@H]2N1C(=O)Cn1nc(C(C)=O)c2cc(-c3cnc(C)nc3)ccc21` [Compound 134, (1R,3S,5R)-2-(2-(3-Acetyl-5-(2-methylpyrimidin-5-yl)-1H-indazol-1-yl)acetyl)-N-(3-((allyloxy)methyl)-6-bromopyridin-2-yl)-5-vinyl-2-azabicyclo[3.1.0]hexane-3-carboxamide], the IC50 is < 1 µM.
As for `CC(=O)c1nn(CC(=O)N2[C@H](C(=O)Nc3nc(Cl)ccc3CN(C)C)C[C@@]3(C)C[C@@H]23)c2ccc(-c3cnc(C)nc3)cc12` [Compound 135, (1R,3S,5R)-2-(2-(3-Acetyl-5-(2-methylpyrimidin-5-yl)-1H-indazol-1-yl)acetyl)-N-(6-chloro-3-((dimethylamino)methyl)pyridin-2-yl)-5-methyl-2-azabicyclo[3.1.0]hexane-3-carboxamide], the concentration for half-maximal inhibition (IC50) is < 1 µM.
For `CC(=O)c1nn(CC(=O)N2[C@H](C(=O)Nc3nc(Br)ccc3CN(C)C)C[C@@]3(C)C[C@@H]23)c2c(C)cc(-c3cnc(C)nc3)cc12` [Compound 136, (1R,3S,5R)-2-(2-(3-Acetyl-7-methyl-5-(2-methylpyrimidin-5-yl)-1H-indazol-1-yl)acetyl)-N-(6-bromo-3-((dimethylamino)methyl)pyridin-2-yl)-5-methyl-2-azabicyclo[3.1.0]hexane-3-carboxamide], the IC50 was < 1 µM.
Turning to `CC(=O)c1nn(CC(=O)N2[C@H](C(=O)Nc3nc(Cl)ccc3CN(C)C)C[C@@]3(C)C[C@@H]23)c2c(C)cc(-c3cnc(C)nc3)cc12` [Compound 137, (1R,3S,5R)-2-(2-(3-Acetyl-7-methyl-5-(2-methylpyrimidin-5-yl)-1H-indazol-1-yl)acetyl)-N-(6-chloro-3-((dimethylamino)methyl)pyridin-2-yl)-5-methyl-2-azabicyclo[3.1.0]hexane-3-carboxamide], the IC50 was < 1 µM.
In the case of `CC(=O)c1nn(CC(=O)N2[C@H](C(=O)Nc3nc(Br)ccc3CN3CCOCC3)C[C@@]3(C)C[C@@H]23)c2ccc(-c3cnc(C)nc3)cc12` [Compound 138, (1R,3S,5R)-2-(2-(3-Acetyl-5-(2-methylpyrimidin-5-yl)-1H-indazol-1-yl)acetyl)-N-(6-bromo-3-(morpholinomethyl)pyridin-2-yl)-5-methyl-2-azabicyclo[3.1.0]hexane-3-carboxamide], the IC50 is < 1 µM.
As to `CC(=O)c1nn(CC(=O)N2[C@H](C(=O)Nc3nc(Cl)ccc3CN3CCOCC3)C[C@@]3(C)C[C@@H]23)c2ccc(-c3cnc(C)nc3)cc12` [Compound 139, (1R,3S,5R)-2-(2-(3-Acetyl-5-(2-methylpyrimidin-5-yl)-1H-indazol-1-yl)acetyl)-N-(6-chloro-3-(morpholinomethyl)pyridin-2-yl)-5-methyl-2-azabicyclo[3.1.0]hexane-3-carboxamide], the IC50 is < 1 µM.
For `Cc1ncc(-c2cc(C)c3c(c2)c(C(C)O)nn3CC(=O)N2[C@H](C(=O)Nc3nc(Br)ccc3C)C[C@@]3(C)C[C@@H]23)cn1` (stereo partly drawn) [Compound 140], the IC50 is < 1 µM.
For `CC(=O)c1nn(CC(=O)N2C[C@H]3C[C@H]3[C@H]2C(=O)Nc2nc(Br)ccc2C)c2cnc(-c3cnc(C)nc3)cc12` [Compound 141, (1R,2S,5S)-3-(2-(3-Acetyl-5-(2-methylpyrimidin-5-yl)-1H-pyrazolo[3,4-c]pyridin-1-yl)acetyl)-N-(6-bromo-3-methylpyridin-2-yl)-3-azabicyclo[3.1.0]hexane-2-carboxamide] the value was < 1 µM.
Regarding `CC(=O)c1nn(CC(=O)N2[C@H](C(=O)Nc3nc(Br)ccc3C)C[C@@]3(CN4CC5(CCCC5)C4)C[C@@H]23)c2ccc(-c3cnc(C)nc3)cc12` [Compound 142, (1R,3S,5R)-5-(2-Azaspiro[3.4]octan-2-ylmethyl)-2-(2-(3-acetyl-5-(2-methylpyrimidin-5-yl)-1H-indazol-1-yl)acetyl)-N-(6-bromo-3-methylpyridin-2-yl)-2-azabicyclo[3.1.0]hexane-3-carboxamide], the IC50 is < 1 µM.
For `CC(=O)c1nn(CC(=O)N2[C@H](C(=O)Nc3nc(Br)ccc3C)C[C@@]3(CN(C)C)C[C@@H]23)c2c(C#N)cc(-c3cnc(C)nc3)cc12` [Compound 143, (1R,3S,5R)-2-(2-(3-Acetyl-7-cyano-5-(2-methylpyrimidin-5-yl)-1H-indazol-1-yl)acetyl)-N-(6-bromo-3-methylpyridin-2-yl)-5-((dimethylamino)methyl)-2-azabicyclo[3.1.0]hexane-3-carboxamide] the value was < 1 µM; for `CC(=O)c1nn(CC(=O)N2[C@H]3C[C@@]3(CN(C)C)C[C@H]2C(=O)Nc2nc(Br)ccc2C)c2c(C#N)cc(-c3cnc(C)nc3)cc12` [Compound 144, (1S,3S)-2-(2-(3-acetyl-7-cyano-5-(2-methylpyrimidin-5-yl)-1H-indazol-1-yl)acetyl)-N-(6-bromo-3-methylpyridin-2-yl)-5-((dimethylamino)methyl)-2-azabicyclo[3.1.0]hexane-3-carboxamide], 1 to 10 µM.
